Experimental findings from patent US20220235065A1 (Epizyme, Inc., priority 2016, published 2022) are described below.

Molecules are shown by their SMILES.

The target of assay [1] is T1, EHMT1 (Homo sapiens, UniProt Q9H9B1).
T1 sequence (Q9H9B1 1-1298): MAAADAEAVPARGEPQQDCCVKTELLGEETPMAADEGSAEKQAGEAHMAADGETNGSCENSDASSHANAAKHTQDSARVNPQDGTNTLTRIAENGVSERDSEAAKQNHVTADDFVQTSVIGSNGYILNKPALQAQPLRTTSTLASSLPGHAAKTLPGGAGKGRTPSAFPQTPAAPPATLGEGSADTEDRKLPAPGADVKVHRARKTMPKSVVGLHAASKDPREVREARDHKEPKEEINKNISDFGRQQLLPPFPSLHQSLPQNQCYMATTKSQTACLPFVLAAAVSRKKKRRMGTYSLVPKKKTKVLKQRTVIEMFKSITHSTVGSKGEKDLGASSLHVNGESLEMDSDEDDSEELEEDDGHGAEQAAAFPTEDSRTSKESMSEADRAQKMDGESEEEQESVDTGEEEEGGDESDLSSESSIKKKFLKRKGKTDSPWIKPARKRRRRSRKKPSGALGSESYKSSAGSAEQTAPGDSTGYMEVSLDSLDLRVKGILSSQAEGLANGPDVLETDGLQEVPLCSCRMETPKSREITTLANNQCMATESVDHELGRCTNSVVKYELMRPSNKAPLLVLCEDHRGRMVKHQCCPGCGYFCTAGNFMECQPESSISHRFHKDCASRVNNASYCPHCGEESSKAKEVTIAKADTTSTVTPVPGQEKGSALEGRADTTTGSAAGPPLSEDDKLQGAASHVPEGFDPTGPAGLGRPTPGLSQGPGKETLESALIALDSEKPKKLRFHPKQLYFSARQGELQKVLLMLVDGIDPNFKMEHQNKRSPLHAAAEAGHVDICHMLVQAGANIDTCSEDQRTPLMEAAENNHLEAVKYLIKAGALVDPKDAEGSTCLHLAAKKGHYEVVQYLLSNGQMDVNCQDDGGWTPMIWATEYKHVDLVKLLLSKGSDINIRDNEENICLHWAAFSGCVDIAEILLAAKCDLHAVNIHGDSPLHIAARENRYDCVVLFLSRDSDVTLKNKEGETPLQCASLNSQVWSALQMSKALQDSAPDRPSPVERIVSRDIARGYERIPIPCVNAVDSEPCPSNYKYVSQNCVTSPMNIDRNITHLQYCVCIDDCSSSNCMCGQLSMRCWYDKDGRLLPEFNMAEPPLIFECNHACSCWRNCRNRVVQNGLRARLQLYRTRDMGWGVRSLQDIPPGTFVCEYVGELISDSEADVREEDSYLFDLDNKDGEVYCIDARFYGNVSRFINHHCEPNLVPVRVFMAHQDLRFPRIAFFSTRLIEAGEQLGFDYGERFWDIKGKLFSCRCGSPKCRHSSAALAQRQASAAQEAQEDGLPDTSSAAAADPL
The experiment in a line: EHMT1 PEP (EHMT1 peptide enzyme assay). The class given is biochemical. The conditions noted are these: peptide substrate enzyme assay.

For assay [2], the target named is T2, recombinant purified human EHMT2 913-1193 (Homo sapiens, UniProt Q96KQ7).
T2 construct: Recombinant purified human EHMT2 913-1193 (55 μM) synthesized by Viva was used for all experiments; purchased Viva
T2 sequence (Q96KQ7 913-1193): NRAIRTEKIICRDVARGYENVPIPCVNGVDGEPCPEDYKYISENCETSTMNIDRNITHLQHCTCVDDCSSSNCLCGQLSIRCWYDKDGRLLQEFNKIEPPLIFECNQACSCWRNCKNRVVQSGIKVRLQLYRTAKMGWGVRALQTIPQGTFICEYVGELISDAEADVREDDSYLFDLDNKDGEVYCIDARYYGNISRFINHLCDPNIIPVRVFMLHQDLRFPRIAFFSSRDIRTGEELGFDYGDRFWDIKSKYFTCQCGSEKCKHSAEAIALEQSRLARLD
Put plainly: EHMT2 enzyme assay on histone peptide substrate (3H-SAM Flashplate). In kind it is biochemical. The following applies: read-out: EHMT2 PEP (IC50 μM). The protocol:
Recombinant purified human EHMT2 913-1193 (55 μM) synthesized by Viva was used for all experiments. Biotinylated histone peptides were synthesized by Biopeptide and HPLC-purified to >95% purity. Streptavidin Flashplates and seals were purchased from PerkinElmer and 384 Well V-bottom Polypropylene Plates were from Greiner. ^3H-labeled S-adenosylmethionine (3H-SAM) was obtained from American Radiolabeled Chemicals with a specific activity of 80 Ci/mmol. Unlabeled SAM and S-adenosylhomocysteine (SAH) were obtained from American Radiolabeled Chemicals and Sigma-Aldrich respectively. Flashplates were washed in a Biotek ELx-405 with 0.1% Tween. 384-well Flashplates and 96-well filter binding plates were read on a TopCount microplate reader (PerkinElmer). Compound serial dilutions were performed on a Freedom EVO (Tecan) and spotted into assay plates using a Thermo Scientific Matrix PlateMate (Thermo Scientific). Reagent cocktails were added by Multidrop Combi (Thermo Scientific).
General Procedure for EHMT2 Enzyme Assay on Histone Peptide Substrate.
10-point curves of test compounds were made on a Freedom EVO (Tecan) using serial 3-fold dilutions in DMSO, beginning at 2.5 mM (final top concentration of compound was 50 μM and the DMSO was 2%). A 1 μL aliquot of the inhibitor dilution series was spotted in a polypropylene 384-well V-bottom plate (Greiner) using a Thermo Scientific Matrix PlateMate (Thermo Scientific). The 100% inhibition control consisted of 1 mM final concentration of the product inhibitor S-adenosylhomocysteine (SAH, Sigma-Aldrich). Compounds were incubated for 30 minutes with 40 μL per well of 0.031 nM EHMT2 (recombinant purified human EHMT2 913-1193, Viva) in 1× assay buffer (20 mM Bicine [pH 7.5], 0.002% Tween 20, 0.005% Bovine Skin Gelatin and 1 mM TCEP). 10 μL per well of substrate mix comprising assay buffer, ^3H-SAM (3H-labeled S-adenosylmethionine, American Radiolabeled Chemicals, specific activity of 80 Ci/mmol), unlabeled SAM (American Radiolabeled Chemicals), and peptide representing histone H3 residues 1-15 containing C-terminal biotin (appended to a C-terminal amide-capped lysine, synthesized by Biopeptide and HPLC-purified to greater than 95% purity) were added to initiate the reaction (both substrates were present in the final reaction mixture at their respective Km values, an assay format referred to as “balanced conditions”). Reactions were incubated for 60 minutes at room temperature and quenched with 10 μL per well of 400 μM unlabeled SAM, then transferred to a 384-well streptavidin Flashplate (PerkinElmer) and washed in a Biotek ELx-405 well washer with 0.1% Tween after 60 minutes. 384-well Flashplates were read on a TopCount microplate reader (PerkinElmer).
IC50 curves were generated using triplicate wells per concentration of compound. The IC50 is the concentration of compound at which measured methylation is inhibited by 50% as interpolated from the dose response curves. IC50 values were calculated using a non-linear regression (variable slope-four parameter fit model) with by the following formula
where Top is fixed at 100% and Bottom is fixed to 0%, [I]=concentration of inhibitor, IC50=half maximal inhibitory concentration and n=Hill Slope.

As a reminder, the IC50 is the concentration at which inhibition is half-maximal. For `CNCc1cnn(-c2cc3nc(NC)n(C)c3cc2OC)c1` [Compound 179], the IC50 in assay [1] and in assay [2] was 0.1 to 1 µM in each case.

As for `CNCc1cnn(-c2cc(Nc3nccc(NC)n3)ccc2OC)c1` [Compound 181, N2-(4-methoxy-3-(4-((methylamino)methyl)-1H-pyrazol-1-yl)phenyl)-N4-methylpyrimidine-2,4-diamine], the IC50 in assay [1] and in assay [2] was below 0.1 µM throughout.

On to `CNCc1cnn(-c2cc3nc(NC)cc(C4CCOCC4)c3cc2OC)c1` [Compound 184], for which the IC50 in assay [1] and in assay [2] was 0.1 to 1 µM throughout.

As to `CCNCc1cnn(-c2cc(Nc3nccc(NC)n3)ccc2OC)c1` [Compound 185], the half-maximal inhibitory concentration (IC50) in assay [1] and in assay [2] was 0.1 to 1 µM in each case.

As to `CNCc1cnn(-c2cc3c(cc2OC)C2(CCC2)C(N)=N3)c1` [Compound 186], the concentration for half-maximal inhibition (IC50) in assay [1] and in assay [2] was below 0.1 µM each time.

For `CNCc1cnn(-c2cc3c(cc2OC)C2(CCC2)C(NC)=N3)c1` [Compound 187], the IC50 in assay [1] and in assay [2] was below 0.1 µM in each case.

As for `CNc1cc(C)nc(Nc2cnc(OC)c(-n3cc(C4CCCN4)cn3)c2)n1` (stereo not drawn) [Compound 188], the IC50 in assay [1] and in assay [2] was 0.1 to 1 µM each time.

Consider `CNc1ccnc(Nc2ccc(OC)c(-n3cc(CNC4CCC4)nn3)c2)n1` [Compound 191], for which the concentration for half-maximal inhibition (IC50) fell in the range of 0.1 to 1 µM in assay [1] and 1 to 10 µM in assay [2].

With `CNC1=Nc2cc(-n3cc([C@H]4CCCN4)nn3)c(OC)cc2C12CCC2` [Compound 192], the 50% inhibitory concentration (IC50) in assay [1] and in assay [2] was below 0.1 µM throughout.

Turning to `COc1cc2c(cc1-n1cc([C@H]3CCCN3)nn1)N=C(N)C21CCC1` [Compound 193], the IC50 in assay [1] and in assay [2] was below 0.1 µM each time.

Take `COc1cc2c(cc1-n1cc(C3CCCN3)nn1)N=C(N)C21CCC1` (stereo not drawn) [Compound 194]: the IC50 in assay [1] and in assay [2] was below 0.1 µM each time.

For `COc1cc2c(cc1-n1cc([C@@H]3CCCN3)nn1)N=C(N)C21CCC1` [Compound 195], the 50% inhibitory concentration (IC50) in assay [1] and in assay [2] was 0.1 to 1 µM each time.

For `CNc1cc(C2CCOCC2)c2cc(OC)c(-n3cc(C4CCCN4)nn3)cc2n1` (stereo not drawn) [Compound 196], the 50% inhibitory concentration (IC50) in assay [1] and in assay [2] was 0.1 to 1 µM throughout.

As for `CNc1cc(C)nc(Nc2ccc(OC)c(-c3[nH]c4cnccc4c3F)c2)n1` [Compound 199], the IC50 in assay [1] and in assay [2] was below 0.1 µM each time.

`CNc1cc(C)nc(Nc2ccc(OC)c(-c3[nH]c4cnccc4c3C)c2)n1` [Compound 200, N2-(4-methoxy-3-(3-methyl-1H-pyrrolo[2,3-c]pyridin-2-yl)phenyl)-N4,6-dimethylpyrimidine-2,4-diamine]: the half-inhibitory concentration (IC50) in assay [1] and in assay [2] was below 0.1 µM in each case.

Regarding `CNc1cc(C)nc(Nc2ccc(OC)c(-c3cc4ncncc4[nH]3)c2)n1` [Compound 201], the half-maximal inhibitory concentration (IC50) in assay [1] and in assay [2] was 1 to 10 µM in each case.

For `COc1cc2c(cc1-c1cc3ccncc3[nH]1)N=C(N)C21CCC1` [Compound 202], the 50% inhibitory concentration (IC50) in assay [1] and in assay [2] was below 0.1 µM in each case.

In the case of `CNc1cc(C)nc(Nc2cnc(OC)c(-c3cc4ccncc4[nH]3)c2)n1` [Compound 204], the 50% inhibitory concentration (IC50) in assay [1] and in assay [2] was 1 to 10 µM in each case.

Regarding `COc1cc(NC2CCNCC2)ncc1-c1cc2ccncc2[nH]1` [Compound 205], the 50% inhibitory concentration (IC50) in assay [1] was 1 to 10 µM; in assay [2] it was above 10 µM.

Take `CNc1cc(C)nc(Nc2ccc(OC)c(-c3cc4[nH]ccc4cn3)c2)n1` [Compound 206, N2-(4-methoxy-3-(1H-pyrrolo[3,2-c]pyridin-6-yl)phenyl)-N4,6-dimethylpyrimidine-2,4-diamine]: the IC50 in assay [1] and in assay [2] was below 0.1 µM in each case.

For the molecule `CNc1cc(C)nc(Nc2ccc(OC)c(-c3cc4[nH]c(C)cc4cn3)c2)n1` [Compound 207], the IC50 in assay [1] and in assay [2] was below 0.1 µM in each case.

Turning to `COc1cc(NC2CCNCC2)ncc1-c1cc2[nH]ccc2cn1` [Compound 208], the IC50 in assay [1] and in assay [2] was 1 to 10 µM each time.

Take `CNc1nc2cc(-c3cc4[nH]ccc4cn3)c(OC)cc2n1C` [Compound 209]: the half-inhibitory concentration (IC50) in assay [1] lay within 0.1 to 1 µM; in assay [2], 1 to 10 µM.

`CNc1cc(C)nc(Nc2ccc(OC)c(-c3cc4[nH]cnc4cn3)c2)n1` [Compound 210]: the figures for the concentration for half-maximal inhibition (IC50) in assay [1] and in assay [2] were below 0.1 µM and 1 to 10 µM, respectively.

For the molecule `CNc1cc(C)nc(Nc2ccc(OC)c(-n3cc([C@@H]4CCCN4)nn3)c2)n1` [Compound 212, (S)—N2-(4-methoxy-3-(4-(pyrrolidin-2-yl)-1H-1,2,3-triazol-1-yl)phenyl)-N4,6-dimethylpyrimidine-2,4-diamine], the IC50 in assay [1] and in assay [2] was below 0.1 µM in each case.

`CNc1cc(C)nc(Nc2ccc(OC)c(-n3cc([C@H]4CCCN4)nn3)c2)n1` [Compound 213]: the IC50 is below 0.1 µM in assay [1] and 0.1 to 1 µM in assay [2].

For `CNC1=Nc2cc(-c3cc4[nH]ccc4cn3)c(OC)cc2C12CCC2` [Compound 214], the IC50 in assay [1] and in assay [2] was below 0.1 µM in each case.

`CNC1=Nc2cc(-c3cc4ccncc4[nH]3)c(OC)cc2C12CCC2` [Compound 215]: the IC50 in assay [1] and in assay [2] was below 0.1 µM each time.

With `CNC1=Nc2cc(-c3[nH]c4cnccc4c3Cl)c(OC)cc2C12CCC2` [Compound 216], the half-inhibitory concentration (IC50) in assay [1] and in assay [2] was below 0.1 µM throughout.

For the molecule `CNc1cc(C)nc(Nc2ccc(OC)c(-c3ccc4c(c3)NC(=O)C4)c2)n1` [Compound 218], the IC50 in assay [1] and in assay [2] was above 10 µM in each case.
